Experimental data reported in patent US9290740B2, “Use of basic fibroblast growth factor in the de-differentiation of animal connective tissue cells” (Worcester Polytechnic Institute, priority 2008, dated 2016).

System: Nanog in CRL-2352 (ATCC) cells
Test: Effect of valproic acid on FGF2 de-differentiation (Nanog immunocytochemistry on glass coverslips)
Type: cell-based, human
Conditions: 1.0 μM valproic acid with 4 ng/ml FGF2, glass coverslips, 5% O2, 6 days
Description: The effect of valproic acid on FGF2 de-differentiation was also studied. CRL-2352 (ATCC) cells (2000 cells per well in 24-well plates containing sterile 12 mm glass coverslips) were cultured in medium consisting of DMEM:Ham's F12 (60:40, MediaTech) with 10% Fetalclone III (Hyclone, Logan, Utah) and 4 ng/ml FGF2, with and without 1.0 μM valproic acid, in parallel cultures. Cultures were carried out in a 37° C. incubator in a humidified environment of 5% CO2, 5% O2, and 90% N2 for 6 days with medium changed at day 3. Cells were washed with DPBS and fixed with −20° C. methanol for 10 min, washed with PBS and processed for immunocytochemistry.

CCCC(CCC)C(=O)O [valproic acid] was tested, and the “nuclear staining for Nanog” value was “increased nuclear staining for Nanog”.
